Key:
Type in all cases: in vivo
barnyard grass (Eo) [1] = assay: Test Example 1: herbicidal effects by flooded paddy field treatment; design: herbicidal effects, Eo (barnyard grass):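 0-5 growth inhibition grade; 5 = over 90%; 4 = 70-90%; 3 = 50-70%; 2 = 30-50%; 1 = 10-30%; 0 = under 10%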; details: for Herbicidal effect index, Eo: dose 100 gai/10a, examined on 21st day after treatment, index 0-5 per Table 44; for herbicidal effects, Eo (barnyard grass): dose 100 g active ingredient per 10 ares, examined on the 21st day after treatment, standards of Table 44;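 on Herbicidal effect index, Eo: 0-5 growth inhibition grade; 5 = over 90%; 4 = 70-90%; 3 = 50-70%; 2 = 30-50%; 1 = 10-30%; 0 = under 10%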
Method in brief: (§1)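 Herbicidal effect is a graded score assigned 21 days after treatment. Application was one day after sowing into flooded (3 cm) puddled paddy soil, with diluted wettable powder dropped onto the water at 100 g active ingredient per 10 ares. Plants were kept in a greenhouse.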

monochoria (Mo) [2] = assay: as above; design: herbicidal effects, Mo (monochoria):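 0-5 growth inhibition grade; 5 = over 90%; 4 = 70-90%; 3 = 50-70%; 2 = 30-50%; 1 = 10-30%; 0 = under 10%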; details: for Herbicidal effect index, Mo: dose 100 gai/10a, examined on 21st day after treatment, index 0-5 per Table 44; for herbicidal effects, Mo (monochoria): dose 100 g active ingredient per 10 ares, examined on the 21st day after treatment, standards of Table 44
Method in brief: as §1

barnyard grass (Ec) = assay: Test Example 2: herbicidal effects by upland soil treatment; design: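 0-5 growth inhibition grade; 5 = over 90%; 4 = 70-90%; 3 = 50-70%; 2 = 30-50%; 1 = 10-30%; 0 = under 10%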; details: dose 100 g active ingredient per 10 ares, examined on the 21st day after treatment, standards of Table 44
Method in brief: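 Pre-emergence test: barnyard grass and green foxtail sown in upland soil, then soil surface sprayed with wettable-powder formulation at 100 g active ingredient per 10 ares (100 l per 10 ares). Grown in greenhouse; herbicidal effect scored on a rating scale 21 days after treatment.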

green foxtail (Se) = assay: as above; details: dose 100 g active ingredient per 10 ares, examined on the 21st day after treatment, standards of Table 44;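 further: 0-5 growth inhibition grade; 5 = over 90%; 4 = 70-90%; 3 = 50-70%; 2 = 30-50%; 1 = 10-30%; 0 = under 10%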
Experimental: In a 80 cm^2 plastic pot, upland soil was filled, and seeds of barnyard grass (Ec) and green foxtail (Se) were sown and covered with soil. A wettable powder prepared in accordance with Formulation Example 1 was diluted with water and uniformly applied to the soil surface by means of a small size spray at a rate of 100 l per 10 ares, so that the dose of the active ingredient would be 100 g per 10 ares. Thereafter, cultivation was carried out in a green house, and on the 21st day after the treatment, the herbicidal effects were examined in accordance with the standards as identified in Table 44.

barnyard grass (Eo) [3] = assay: Test Example 4: selectivity for a crop plant by flooded paddy field treatment; design: scale not given here; details: for Eo (herbicidal effect index): barnyard grass, dose 25 gai/10a, 21st day after treatment, index per Table 44; for Eo (herbicidal effects, index): dose 25 g active ingredient per 10 ares, examined on the 21st day after treatment
Method in brief: (§2)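 Scores reflect visual herbicidal effect, graded on a standard scale 21 days after water-surface treatment. The product, a wettable powder diluted with water, went on dropwise at 25 g a.i. per 10 ares one day after flooding to 3 cm. Weeds grew from sown seed and rice was transplanted at second-leaf stage.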

monochoria (Mo) [4] = assay: as above; design: scale not given here; details: for Mo (herbicidal effect index): monochoria, dose 25 gai/10a, 21st day after treatment, index per Table 44; for Mo (herbicidal effects, index): dose 25 g active ingredient per 10 ares, examined on the 21st day after treatment
Method in brief: as §2

rice (Or) = assay: as above; design: scale not given here; details: rice transplanted at second leaf stage; for Or (herbicidal effect index on crop): dose 25 gai/10a, 21st day after treatment, index per Table 44; for Or (effect on crop plant rice, index): dose 25 g active ingredient per 10 ares, examined on the 21st day after treatment
Method in brief: as §2
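Wherever Herbicidal effect index, Mo is given: 0-5 growth inhibition grade; 5 = over 90%; 4 = 70-90%; 3 = 50-70%; 2 = 30-50%; 1 = 10-30%; 0 = under 10%.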

| Or (effect on crop plant rice, index) (rice (Or)) | SMILES | Herbicidal effect index, Eo (barnyard grass (Eo) [1]) | Herbicidal effect index, Mo (monochoria (Mo) [2]) | herbicidal effects, Ec (barnyard grass) (barnyard grass (Ec)) | herbicidal effects, Se (green foxtail) (green foxtail (Se)) | Eo (herbicidal effect index) (barnyard grass (Eo) [3]) | Mo (herbicidal effect index) (monochoria (Mo) [4]) | Or (herbicidal effect index on crop) (rice (Or)) | herbicidal effects, Eo (barnyard grass) (barnyard grass (Eo) [1]) | herbicidal effects, Mo (monochoria) (monochoria (Mo) [2]) | Eo (herbicidal effects, index) (barnyard grass (Eo) [3]) | Mo (herbicidal effects, index) (monochoria (Mo) [4]) |
| --- | --- | --- | --- | --- | --- | --- | --- | --- | --- | --- | --- | --- |
|  | CC(Oc1ccc(Cl)cc1)C(=O)N(C)C(c1cncnc1C(F)(F)F)C(C)C (mixture of isomers) [Compound 1-116] | 5 | 5 | 5 | 4 | 5 | 5 | 0 |  |  |  |  |
|  | CC(C)C(c1cncnc1C(F)(F)F)N(C)C(=O)Cc1ccc(Cl)c(F)c1 (racemic) [1-180] |  |  | 5 | 5 | 5 | 5 | 1 | 5 | 5 |  |  |
|  | CCCN(C(=O)Cc1ccc(F)cc1)C(c1cncnc1C(F)(F)F)C(C)C (racemic) [1-181] |  |  | 5 | 5 | 5 | 5 | 1 | 5 | 5 |  |  |
|  | CC(C)C(c1cncnc1C(F)(F)F)N(C)C(=O)CSc1ccccc1 (racemic) [1-182] |  |  | 5 | 5 | 5 | 5 | 1 | 5 | 5 |  |  |
|  | CC(c1cncnc1C(C)(C)C)N(C)C(=O)Cc1ccc(Cl)cc1 (racemic) [1-190] |  |  | 4 | 4 | 5 | 5 | 0 | 5 | 5 |  |  |
|  | Cc1ccc(CC(=O)N(C)C(c2ccccc2)c2cncnc2C(F)(F)F)cc1 (racemic) [1-197] |  |  | 5 | 5 | 5 | 5 | 0 | 5 | 5 |  |  |
|  | CN(C(=O)Cc1ccc(Cl)cc1)C(c1cccs1)c1cncnc1C(F)(F)F (racemic) [1-200] |  |  | 5 | 5 | 5 | 5 | 1 | 5 | 5 |  |  |
|  | CN(C(=O)Cc1ccccc1)C(c1ccc(F)cc1)c1cncnc1C(F)(F)F (racemic) [1-217] |  |  | 5 | 5 | 5 | 5 | 1 | 5 | 5 |  |  |
|  | CN(C(=O)Cc1ccc(Cl)cc1)C(c1ccc(F)cc1)c1cncnc1C(F)(F)F (racemic) [1-219] |  |  | 5 | 5 | 5 | 5 | 1 | 5 | 5 |  |  |
|  | Cc1ccc(C(c2cncnc2C(F)(F)F)N(C)C(=O)Cc2ccccc2)cc1 (racemic) [1-225] |  |  | 5 | 5 | 5 | 5 | 0 | 5 | 5 |  |  |
|  | Cc1ccc(C(c2cncnc2C(F)(F)F)N(C)C(=O)Cc2ccc(F)cc2)cc1 (racemic) [1-226] |  |  | 5 | 4 | 5 | 5 | 1 | 5 | 5 |  |  |
|  | Cc1ccc(CC(=O)N(C)C(c2ccc(C)cc2)c2cncnc2C(F)(F)F)cc1 (racemic) [1-228] |  |  | 5 | 5 | 5 | 5 | 0 | 5 | 5 |  |  |
| 1 | COc1ccc(CC(=O)N(C)C(c2cncnc2C(F)(F)Cl)C(C)C)cc1 (racemic) [Compound 1-16] | 5 | 5 | 4 | 5 |  |  |  |  |  | 5 | 5 |
| 1 | CC(C)C(c1cncnc1C(F)(F)Cl)N(C)C(=O)Sc1ccccc1 (racemic) [Compound 1-17] | 5 | 5 | 4 | 4 |  |  |  |  |  | 5 | 5 |
| 1 | CC(C)C(c1cncnc1C(F)(F)F)N(C)C(=O)Cc1ccccc1Cl (racemic) [Compound 1-20] | 5 | 5 | 5 | 5 |  |  |  |  |  | 5 | 5 |
| 1 | CN(C(=O)Cc1ccccc1)C(c1cncnc1C(F)(F)F)C1CC1 (racemic) [Compound 1-34] | 5 | 5 | 5 | 5 |  |  |  |  |  | 5 | 5 |
| 1 | CN(C(=O)Cc1ccc(F)cc1)C(c1ccccc1)c1cncnc1C(F)(F)F (racemic) [Compound 1-36] | 5 | 5 | 5 | 5 |  |  |  |  |  | 5 | 5 |
| 0 | CC(C)C(c1cncnc1C(F)(F)Cl)N(C)C(=O)Nc1ccccc1 (racemic) [Compound 1-38] | 5 | 5 | 5 | 4 |  |  |  |  |  | 5 | 5 |
| 0 | CC(C)C(c1cncnc1C(F)(F)F)N(C)C(=O)Cc1cc(F)ccc1F (racemic) [Compound 1-40] | 5 | 5 | 5 | 4 |  |  |  |  |  | 5 | 5 |
| 1 | CC(C)C(c1cncnc1C(F)(F)F)N(C)C(=O)Cc1ccc([N+](=O)[O-])cc1 (racemic) [Compound 1-52] | 5 | 5 | 5 | 5 |  |  |  |  |  | 5 | 5 |
